Columns and labels:
EL-4 tumor cells [1] = test: Cannabinoid-induced apoptosis in vitro (TUNEL or annexin V/PI); format: cell-based, murine; details: for induction of apoptosis (annexin/PI) compared with controls: 3 μM
Description: (§1) The cells were washed twice with PBS. […] Five thousand cells were analyzed per sample.

Molt-4 [2] = test: Cannabinoid-induced apoptosis in vitro (TUNEL); format: cell-based, human; design: induction of apoptosis (TUNEL): dose or concentration left out as unconfirmed
Description: as §1

EL-4 tumor cells [3] = test: Tumor-cell viability in vitro, trypan blue dye exclusion; format: cell-based, murine; design: time required to induce tumor-cell killing: dose or concentration left out as unconfirmed
Description: (§2) Measurement of the effect of cannabinoid receptor aponistson tumor-cell viability in vitro: Tumor cells were adjusted to 1×10^6 cells/mL in medium containing 5% FCS or serum-free medium. The cells (1×10^6) were cultured in 24-well plates in 2 mL medium in the presence or absence of various concentrations of cannabinoid receptor agonists for 2 to 24 hours. Finally, the cells were harvested and washed twice in PBS, and the viable cell count was determined by trypan blue dye exclusion.

LSA tumor cells [4] = test: as above; format: cell-based, murine; details: medium with 5% FCS, 24 hours
Description: as §2

P815 tumor cells [5] = test: as above; format: cell-based, murine; details: P815, medium with 5% FCS, 24 hours
Description: as §2

LSA tumor cells [6] = test: Cannabinoid-induced apoptosis in vitro (TUNEL); format: cell-based, murine; details: 5% FCS, 24 hours, 20 μM THC (printed 201M)
Description: as §1

P815 tumor cells [7] = test: Cannabinoid-induced apoptosis in vitro (TUNEL); format: cell-based, murine; details: P815, 5% FCS, 24 hours, 20 μM THC (printed 201M)
Description: as §1

EL-4 tumor cells [8] = test: Tumor-cell viability and induction of apoptosis in vivo in EL-4 tumor-bearing mice; design: species or system C57BL/6 mice
Description: Measurement of tumor-cell viability and induction of apoptosis in vivo: Groups of 5 C57BL/6 mice were injected intraperitoneally (IP) with 1×10^6 EL-4 tumor cells suspended in 0.2 mL PBS. The control mice received PBS alone. Ten days later, the mice were injected with various concentrations of THC (0, 1, 3, or 5 mg/kg […]). The mice were killed 24 hours later and the EL-4 tumor cells were harvested from the peritoneal cavity by injecting 5.0 mL PBS, followed by aspiration of the peritoneal fluid from the cavity. The contaminating red blood cells were removed with red blood lysing solution (Sigma), and the tumor cells were washed twice with PBS. The number of viable cells was determined by trypan blue dye exclusion, and apoptosis was determined using the TUNEL assay. The presence of tumor cells in the peritoneal cavity was confirmed by the ability of the cells to grow in vitro and by the phenotype (Thyl-, CD4-, CD8-).

EL-4 tumor cells [9] = test: Survival of EL-4-challenged mice; format: in vivo, C57BL/6 mice; details: 5 mg/kg IP daily for 14 days
Description: Effect of THC on survival of EL-4-challenged mice: Groups of 8 C57BL/6 mice were injected […] with 1×10^6 EL-4 tumor cells in a volume of 100 μL PBS. One day following tumor injection, the mice received daily IP injections for 14 days with 5 mg/kg THC in a volume of 500 μL PBS. Control mice received injections with the vehicle control. The mice were observed daily for signs of morbidity and were euthanized. Mice that survived for more than 60 days were rechallenged with live EL-4 cells (1×10^6) and tested for their ability to reject tumor and survive.

Jurkat [10] = test: Tumor-cell viability in vitro, trypan blue dye exclusion; format: cell-based, human
Description: as §2

Sup-T1 = test: as above; format: cell-based, human; details: Sup-T1, 5 μM THC, 4 hours
Description: as §2

primary ALL cells = test: Viability of primary ALL cells in vitro, trypan blue dye exclusion; format: cell-based, human; details: ALL no. 1 and ALL no. 2, serum-free medium, 2 hours
Excerpt: Primary leukemic cells: Peripheral blood samples were obtained from 2 patients diagnosed with ALL. The samples were referred to as ALL no. 1 and ALL no. 2. ALL no. 1 was obtained from a patient newly diagnosed with common acute lymphoblastic leukemia antigen (CALLA) (CD10)-positive non-B, non-T ALL. ALL no. 2 was obtained from a patient newly diagnosed with terminal deoxynucleotidyl transferase (TdT)-positive T-cell ALL. Informed consent was obtained following institutional guidelines and approval was obtained from the institutional review board of Virginia Commonwealth University. Consent was provided according to the Declaration of Helsinki.
The content of the lymphoblasts was greater than 70% as determined by flow cytometric analysis. Mononuclear cells were isolated by Ficoll-Paque density gradient centrifugation. In this study, the samples were cryopreserved and stored in liquid nitrogen before use. Viability after thawing was determined by trypan blue dye exclusion and was greater than 90%.
Measurement of the effect of cannabinoid receptor aponistson tumor-cell viability in vitro: Tumor cells were adjusted to 1×10^6 cells/mL in medium containing 5% FCS or serum-free medium. […] Finally, the cells were harvested and washed twice in PBS, and the viable cell count was determined by trypan blue dye exclusion.

tumor cells = test: Dose of THC that induced apoptosis in vitro, with and without serum; format: cell-based
Description: as §1

[11] = rats injected with 50 mg/kg, within 10 hours of administration; cited from earlier work
thymus and spleen = test: Cellularity of thymus and spleen after administration to C57BL/6 mice; details: resulted from apoptosis in immune cells
Jurkat [12] = test: Cannabinoid-induced apoptosis in vitro (TUNEL); format: cell-based, human; details: 5 μM JWH-015, serum-free medium, 24 hours
Description: as §1

Molt-4 [13] = test: Tumor-cell viability in vitro, trypan blue dye exclusion; format: cell-based, human; details: Molt-4, serum-free medium, 24 hours
Description: as §2

[14] = cited from earlier work
CB2 receptors = CB2 receptors (Homo sapiens, UniProt P34972); details: human tumor cells, pretreatment with the CB2 antagonist
Sequence of CB2 receptors (P34972 whole entry): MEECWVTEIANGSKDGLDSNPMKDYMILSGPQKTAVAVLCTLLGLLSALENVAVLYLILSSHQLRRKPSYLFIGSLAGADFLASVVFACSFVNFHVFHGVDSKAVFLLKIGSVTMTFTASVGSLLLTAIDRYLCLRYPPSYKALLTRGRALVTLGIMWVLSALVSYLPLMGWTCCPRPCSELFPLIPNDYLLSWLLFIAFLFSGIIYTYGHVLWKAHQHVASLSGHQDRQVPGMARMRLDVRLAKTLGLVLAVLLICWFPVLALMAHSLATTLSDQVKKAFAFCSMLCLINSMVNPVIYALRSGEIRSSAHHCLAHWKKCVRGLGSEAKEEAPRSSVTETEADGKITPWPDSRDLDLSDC
Description: Next, the cells were harvested, washed twice in PBS, and analyzed for the induction of apoptosis using either the terminal deoxynucleotidyl transferase-mediated end labeling (TUNEL) method or annexin V/propidium iodide (PI) method, as described elsewhere (references 14,15 incorporated herein by reference). To detect apoptosis using the TUNEL method, we washed the cells twice with PBS and fixed them with 4% p-formaldehyde for 30 minutes at room temperature. The cells were next washed with PBS, permeabilized on ice for 2 minutes, and incubated with fluorescein isothiocyanate-dUTP and TdT (Boehringer Mannheim, Indianapolis, Ind.) for 1 hour at 37° C. and 5% CO2. To detect apoptosis using the annexin V/PI method, we washed the cells twice with PBS and stained them with annexin V and PI for 20 minutes at room temperature. The cells were washed twice with PBS. The levels of apoptosis in both the TUNEL and annexin/PI assays were determined by measuring the fluorescence of the cells by flow cytometric analysis. Five thousand cells were analyzed per sample.

[15] = EL-4, serum-free medium, 5 μM, 4 hours
[16] = EL-4, serum-free medium, 4 hours
[17] = 5 mg/kg IP on day 10, harvest 24 hours later

CCCCC/C=C\C/C=C\C/C=C\C/C=C\CCCC(=O)NCCO [anandamide]
induction of apoptosis (TUNEL) (EL-4 tumor cells [1]; [15]): slight increase in apoptosis
induction of apoptosis (TUNEL) (EL-4 tumor cells [1]; EL-4, serum-free medium, 10 μM, 4 hours): significant levels of apoptosis
concentration leading to significant levels of apoptosis (TUNEL) (Molt-4 [2]; Molt-4, serum-free medium, 4 hours): ≥ 20 µM

CCCCCc1cc(O)c2c(c1)OC(C)(C)[C@@H]1CCC(C)=C[C@@H]21 [THC, Delta-9-tetrahydrocannabinol]
concentration leading to a significant reduction in the number of viable cells (EL-4 tumor cells [3]; EL-4, medium with 5% FCS, 24 hours): ≥ 10 µM
time required to induce tumor-cell killing (EL-4 tumor cells [3]; EL-4, serum-free medium): 4 h
concentration leading to a significant decrease in tumor-cell viability (EL-4 tumor cells [3]; [16]): 5 µM
concentration causing a significant decrease in tumor-cell viability (EL-4 tumor cells [3]; EL-4, serum-free medium, 12 hours): 3 µM
concentration leading to a significant reduction in the number of viable cells (LSA tumor cells [4]): ≥ 10 µM
concentration leading to a significant reduction in the number of viable cells (P815 tumor cells [5]): ≥ 10 µM
induction of apoptosis (TUNEL) (EL-4 tumor cells [1]; EL-4, 5% FCS, 24 hours, 20 μM THC (printed 201M)): induced significant apoptosis
induction of apoptosis (annexin/PI) compared with controls (EL-4 tumor cells [1]; [16]): significant increase in apoptosis
induction of apoptosis (TUNEL and annexin/PI) (EL-4 tumor cells [1]; [15]): increase in the induction of apoptosis
induction of apoptosis (TUNEL) (LSA tumor cells [6]): induced significant apoptosis
induction of apoptosis (TUNEL) (P815 tumor cells [7]): induced significant apoptosis
viable tumor-cell number in the peritoneal cavity (EL-4 tumor cells [8]; 1 mg/kg IP on day 10, harvest 24 hours later): failed to cause a decrease in cellularity
viable tumor-cell number in the peritoneal cavity (EL-4 tumor cells [8]; 3 mg/kg IP on day 10, harvest 24 hours later): effective
proportion of tumor cells showing apoptosis (TUNEL) (EL-4 tumor cells [8]; [17]): 77.3%
viable tumor-cell number in the peritoneal cavity (EL-4 tumor cells [8]; [17]): effective
survival of EL-4 tumor-bearing mice (EL-4 tumor cells [9]): significant increase in survival
mice that survived the tumor challenge / were cured (EL-4 tumor cells [9]; listed as TEC): approximately 25%
number of viable tumor cells (Jurkat [10]; 5 μM THC, 4 hours): dramatic reduction in the number of viable tumor cells
number of viable tumor cells (Sup-T1): dramatic reduction in the number of viable tumor cells
concentration resulting in significant reduction in viability (primary ALL cells): ≥ 5 µM
dose that induced apoptosis in vitro (tumor cells; serum-containing medium): ≥ 10 µM
dose that induced apoptosis in vitro (tumor cells; serum-free medium): ≥ 3 µM
THC in the serum [11]: 10 µM
cellularity of the thymus and spleen (thymus and spleen): marked decrease in the cellularity of the thymus and spleen

CCCn1c(C)c(C(=O)c2cccc3ccccc23)c2ccccc21 [JWH-015, (2-Methyl-1-propyl-1H-indol-3-yl)-1-naphthalenylmethanone]
induction of apoptosis (TUNEL) (Jurkat [12]): significant induction of apoptosis
induction of apoptosis (TUNEL) (Molt-4 [2]; Molt-4, JWH-015, serum-free medium, 24 hours): significant induction of apoptosis
concentration leading to a significant decrease in the number of viable tumor cells (Jurkat [10]; serum-free medium, 24 hours): ≥ 5 µM
concentration leading to a significant decrease in the number of viable tumor cells (Molt-4 [13]): ≥ 5 µM
soluble to, in DMSO ([14]; DMSO): 10 mM
soluble to, in ethanol ([14]; ethanol): 25 mM

CCCCCCC(C)(C)c1cc(O)c2c(c1)OC(C)(C)[C@@H]1CC=C(CO)C[C@@H]21 [HU-210]
induction of apoptosis (annexin/PI) compared with controls (EL-4 tumor cells [1]; [16]): significant increase in apoptosis

Cc1c(C(=O)c2cccc3ccccc23)c2cccc3c2n1[C@H](CN1CCOCC1)CO3 [WIN55212]
induction of apoptosis (annexin/PI) compared with controls (EL-4 tumor cells [1]; [16]): no significant effect

SR144528
effect of pretreatment on THC-induced apoptosis (CB2 receptors): partially reversed

Reference: patent US20040259936A1, “Treatment of neoplasia” (priority 2001, published 2004)
